test: Binding affinity to carbonic anhydrase

Log Ki	Structure (SMILES)
-6.6	CC(C)(C)c1ccc(C(=O)Nc2ccccc2S(N)(=O)=O)cc1
-6.5	Cc1ccc(S(N)(=O)=O)cc1 [P-TOLUENESULFONAMIDE]
-9.7	CN1C(CN2CCOCC2)=Cc2sc(S(N)(=O)=O)cc2S1(=O)=O

From ChEMBL document CHEMBL1144845, “Ligand binding efficiency: trends, physical basis, and implications” (J Med Chem, 2008)
